Laboratory results: patent publication US20180371044A1, “PEPTIDOMIMETIC MACROCYCLES” (Aileron Therapeutics, Inc., priority 2015, published 2018)
Where a SMILES comes first, the peptide text is derived from it. Bridges are numbered along the chain shown (N, C = ends). [ ]: non-standard residue; d: D form. The star is where a group is joined. NiPrTyr = CC(C)N[C@@H](Cc1ccc(O)cc1)C(=O)O; NMeY = CN[C@@H](Cc1ccc(O)cc1)C(=O)O; R8 = C=CCCCCCC[C@@](C)(N)C(=O)O; S5 = C=CCCC[C@](C)(N)C(=O)O; Nle = CCCC[C@H](N)C(=O)O; Hexanoyl = CCCCCC(=O)*; Aib = CC(C)(N)C(=O)O

The molecules below were run against T1, human GHRH receptor (hGHRHR) (Homo sapiens, UniProt Q02643) (assay: GHRHR agonism measured by cAMP (HTRF) in human 293 cells expressing hGHRHR). Details: 30 min at RT.
T1 construct: expressed in transfected cells; host or cells: Human 293 cells
T1 sequence (Q02643 23-423): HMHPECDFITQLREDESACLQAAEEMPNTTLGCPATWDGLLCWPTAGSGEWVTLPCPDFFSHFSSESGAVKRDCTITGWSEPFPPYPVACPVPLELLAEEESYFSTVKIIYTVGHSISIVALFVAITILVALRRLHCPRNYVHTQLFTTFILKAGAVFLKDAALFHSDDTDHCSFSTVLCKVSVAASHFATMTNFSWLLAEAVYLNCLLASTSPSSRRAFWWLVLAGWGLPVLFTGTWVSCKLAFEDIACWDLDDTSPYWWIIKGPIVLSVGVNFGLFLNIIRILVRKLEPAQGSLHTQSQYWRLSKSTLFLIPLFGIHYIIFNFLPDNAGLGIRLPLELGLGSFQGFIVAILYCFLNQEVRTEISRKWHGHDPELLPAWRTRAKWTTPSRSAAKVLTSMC
Assay type: cell-based
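Further: receptor expressed transiently or stably, cells stimulated in serum-free medium, EC50 from a non-linear dose-response fit, maximal response defined by reference GHRH stimulation.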
Method: GHRH (1-29) and cross-linked peptidomimetic macrocycles were tested for agonism at the human GHRH receptor (hGHRHR) at various concentrations. Human 293 cells transiently or stably expressing hGHRHR were detached from cell culture flasks with versene (Life Technologies™), suspended in serum-free medium (50 k cells/assay point), and stimulated for 30 min at RT with GHRH (1-29) (Bachem™) or cross-linked peptidomimetic macrocycles. cAMP was quantified using an HTRF®-based assay (CisBio) and used according to the manufacturer's instructions. An EC50 for each agonist was calculated from a non-linear fit of response vs dose (GraphPad™ Prism). The maximum response was determined by stimulating with 10 μM GHRH (1-29). (+=>50 nm; ++=>25-50 nm; +++=>10-25 nm; ++++=>1-10 nm; +++++=≤1 nm).

Structure (SMILES)	EC50 [nM]
CCCC[C@H](NC(=O)[C@@H](NC(=O)[C@H](CC(=O)O)NC(=O)[C@H](CCC(N)=O)NC(=O)[C@H](CC(C)C)NC(=O)[C@H](C)NC(=O)[C@H](CCCCN)NC(=O)[C@H](CCCNC(=N)N)NC(=O)[C@H](C)NC(=O)[C@H](CO)NC(=O)[C@H](CC(C)C)NC(=O)[C@H](CCC(N)=O)NC(=O)[C@]1(C)CCCC=CCCCCCC[C@@](C)(NC(=O)[C@@H](NC(=O)[C@H](Cc2ccccc2)NC(=O)[C@@H](NC(=O)[C@H](C)NC(=O)[C@H](CC(=O)O)NC(=O)[C@H](C)NC(=O)[C@H](Cc2ccc(O)cc2)NC)[C@@H](C)CC)[C@@H](C)O)C(=O)N[C@@H](CO)C(=O)N[C@@H](Cc2ccc(O)cc2)C(=O)N[C@@H](CCCNC(=N)N)C(=O)N[C@@H](CCCCN)C(=O)N[C@@H](C(C)C)C(=O)N[C@@H](CC(C)C)C(=O)N1)[C@@H](C)CC)C(=O)N[C@@H](CO)C(=O)N[C@@H](CCCNC(=N)N)C(N)=O [SP-25] (H-[NMeY]ADAIFT[R8]SYRKVL[S5]QLSARKALQDI[Nle]SR-NH2; staple 8-15)	1 to 10
CCCC[C@H](NC(=O)[C@@H](NC(=O)[C@H](CC(=O)O)NC(=O)[C@H](CCC(N)=O)NC(=O)[C@H](CC(C)C)NC(=O)[C@H](C)NC(=O)[C@H](CCCCN)NC(=O)[C@H](CCCNC(=N)N)NC(=O)[C@H](C)NC(=O)[C@H](CO)NC(=O)[C@H](CC(C)C)NC(=O)[C@H](CCC(N)=O)NC(=O)[C@H](C)NC(=O)[C@H](CC(C)C)NC(=O)[C@@H](NC(=O)[C@H](CCCCN)NC(=O)[C@H](CCCNC(=N)N)NC(=O)[C@H](Cc1ccc(O)cc1)NC(=O)[C@H](CO)NC(=O)[C@H](C)NC(=O)[C@@H](NC(=O)[C@H](Cc1ccccc1)NC(=O)[C@@H](NC(=O)[C@H](C)NC(=O)[C@H](CC(=O)O)NC(=O)[C@H](C)NC(=O)[C@H](Cc1ccc(O)cc1)NC(C)C)[C@@H](C)CC)[C@@H](C)O)C(C)C)[C@@H](C)CC)C(=O)N[C@@H](CO)C(=O)N[C@@H](CCCNC(=N)N)C(N)=O [SP-37] (H-[NiPrTyr]ADAIFTASYRKVLAQLSARKALQDI[Nle]SR-NH2)	1 to 10
CCCC[C@H](NC(=O)[C@@H](NC(=O)[C@H](CC(=O)O)NC(=O)[C@H](CCC(N)=O)NC(=O)[C@H](CC(C)C)NC(=O)[C@H](C)NC(=O)[C@H](CCCCN)NC(=O)[C@H](CCCNC(=N)N)NC(=O)[C@H](C)NC(=O)[C@H](CO)NC(=O)[C@H](CC(C)C)NC(=O)[C@H](CCC(N)=O)NC(=O)[C@H](C)NC(=O)[C@H](CC(C)C)NC(=O)[C@@H](NC(=O)[C@H](CCCCN)NC(=O)[C@H](CCCNC(=N)N)NC(=O)[C@H](Cc1ccc(O)cc1)NC(=O)[C@H](CO)NC(=O)[C@H](C)NC(=O)[C@@H](NC(=O)[C@H](Cc1ccccc1)NC(=O)[C@@H](NC(=O)[C@H](C)NC(=O)[C@H](CC(=O)O)NC(=O)[C@H](C)NC(=O)[C@H](Cc1ccc(O)cc1)NC(C)=O)[C@@H](C)CC)[C@@H](C)O)C(C)C)[C@@H](C)CC)C(=O)N[C@@H](CO)C(=O)N[C@@H](CCCNC(=N)N)C(N)=O [SP-40] (Ac-YADAIFTASYRKVLAQLSARKALQDI[Nle]SR-NH2)	1 to 10
CCCC[C@H](NC(=O)[C@@H](NC(=O)[C@H](CC(=O)O)NC(=O)[C@H](CCC(N)=O)NC(=O)[C@H](CC(C)C)NC(=O)[C@H](C)NC(=O)[C@H](CCCCN)NC(=O)[C@H](CCCNC(=N)N)NC(=O)[C@]1(C)CCCC=CCCCCCC[C@@](C)(NC(=O)[C@H](CCCNC(=N)N)NC(=O)[C@H](Cc2ccc(O)cc2)NC(=O)[C@H](CO)NC(=O)[C@H](C)NC(=O)[C@@H](NC(=O)[C@H](Cc2ccccc2)NC(=O)[C@@H](NC(=O)[C@H](C)NC(=O)[C@H](CC(=O)O)NC(=O)[C@H](C)NC(=O)[C@H](Cc2ccc(O)cc2)NC)[C@@H](C)CC)[C@@H](C)O)C(=O)N[C@@H](C(C)C)C(=O)N[C@@H](CC(C)C)C(=O)N[C@@H](C)C(=O)N[C@@H](CCC(N)=O)C(=O)N[C@@H](CC(C)C)C(=O)N[C@@H](CO)C(=O)N1)[C@@H](C)CC)C(=O)N[C@@H](CO)C(=O)N[C@@H](CCCNC(=N)N)C(N)=O [SP-57]	10 to 25
CCCC[C@H](NC(=O)[C@@H](NC(=O)[C@H](CC(=O)O)NC(=O)[C@H](CCC(N)=O)NC(=O)[C@H](CC(C)C)NC(=O)[C@H](C)NC(=O)[C@H](CCCCN)NC(=O)[C@H](CCCNC(=N)N)NC(=O)[C@H](C)NC(=O)[C@H](CO)NC(=O)[C@H](CC(C)C)NC(=O)[C@H](CCC(N)=O)NC(=O)[C@H](C)NC(=O)[C@H](CC(C)C)NC(=O)[C@@H](NC(=O)[C@]1(C)CCCC=CCCC[C@](C)(NC(=O)[C@@H](NC(=O)[C@H](Cc2ccccc2)NC(=O)[C@@H](NC(=O)[C@H](C)NC(=O)[C@H](CC(=O)O)NC(=O)[C@H](C)NC(=O)[C@H](Cc2ccc(O)cc2)NC)[C@@H](C)CC)[C@@H](C)O)C(=O)N[C@@H](CO)C(=O)N[C@@H](Cc2ccc(O)cc2)C(=O)N[C@@H](CCCNC(=N)N)C(=O)N1)C(C)C)[C@@H](C)CC)C(=O)N[C@@H](CO)C(=O)N[C@@H](CCCNC(=N)N)C(N)=O [SP-9] (H-[NMeY]ADAIFT[S5]SYR[S5]VLAQLSARKALQDI[Nle]SR-NH2; staple 8-12)	1 to 10
CCCC[C@H](NC(=O)[C@]1(C)CCCC=CCCCCCC[C@@](C)(NC(=O)[C@H](CO)NC(=O)[C@H](CC(C)C)NC(=O)[C@H](CCC(N)=O)NC(=O)[C@H](C)NC(=O)[C@H](CC(C)C)NC(=O)[C@@H](NC(=O)[C@H](CCCCN)NC(=O)[C@H](CCCNC(=N)N)NC(=O)[C@H](Cc2ccc(O)cc2)NC(=O)[C@H](CO)NC(=O)[C@H](C)NC(=O)[C@@H](NC(=O)[C@H](Cc2ccccc2)NC(=O)[C@@H](NC(=O)[C@H](C)NC(=O)[C@H](CC(=O)O)NC(=O)[C@H](C)NC(=O)[C@H](Cc2ccc(O)cc2)NC)[C@@H](C)CC)[C@@H](C)O)C(C)C)C(=O)N[C@@H](CCCNC(=N)N)C(=O)N[C@@H](CCCCN)C(=O)N[C@@H](C)C(=O)N[C@@H](CC(C)C)C(=O)N[C@@H](CCC(N)=O)C(=O)N[C@@H](CC(=O)O)C(=O)N1)C(=O)N[C@@H](CO)C(=O)N[C@@H](CCCNC(=N)N)C(N)=O [SP-31] (H-[NMeY]ADAIFTASYRKVLAQLS[R8]RKALQD[S5][Nle]SR-NH2; staple 19-26)	1 to 10
CCCCCC(=O)N[C@@H](Cc1ccc(O)cc1)C(=O)N[C@@H](C)C(=O)N[C@@H](CC(=O)O)C(=O)N[C@@H](C)C(=O)N[C@H](C(=O)N[C@@H](Cc1ccccc1)C(=O)N[C@H](C(=O)N[C@@H](C)C(=O)N[C@@H](CO)C(=O)N[C@@H](Cc1ccc(O)cc1)C(=O)N[C@@H](CCCNC(=N)N)C(=O)N[C@@H](CCCCN)C(=O)N[C@H](C(=O)N[C@@H](CC(C)C)C(=O)N[C@@H](C)C(=O)N[C@@H](CCC(N)=O)C(=O)N[C@@H](CC(C)C)C(=O)N[C@@H](CO)C(=O)N[C@@H](C)C(=O)N[C@@H](CCCNC(=N)N)C(=O)N[C@@H](CCCCN)C(=O)N[C@@H](C)C(=O)N[C@@H](CC(C)C)C(=O)N[C@@H](CCC(N)=O)C(=O)N[C@@H](CC(=O)O)C(=O)N[C@H](C(=O)N[C@@H](CCCC)C(=O)N[C@@H](CO)C(=O)N[C@@H](CCCNC(=N)N)C(N)=O)[C@@H](C)CC)C(C)C)[C@@H](C)O)[C@@H](C)CC [SP-39] (Hexanoyl-YADAIFTASYRKVLAQLSARKALQDI[Nle]SR-NH2)	1 to 10
CCCC[C@H](NC(=O)[C@@H](NC(=O)[C@H](CC(=O)O)NC(=O)[C@H](CCC(N)=O)NC(=O)[C@H](CC(C)C)NC(=O)[C@H](C)NC(=O)[C@H](CCCCN)NC(=O)[C@H](CCCNC(=N)N)NC(=O)[C@H](C)NC(=O)[C@H](CO)NC(=O)[C@H](CC(C)C)NC(=O)[C@H](CCC(N)=O)NC(=O)[C@H](C)NC(=O)[C@H](CC(C)C)NC(=O)[C@@H](NC(=O)[C@]1(C)CCCC=CCCCCCC[C@@](C)(NC(=O)[C@H](C)NC(=O)[C@H](CC(=O)O)NC(=O)[C@H](C)NC(=O)[C@H](Cc2ccc(O)cc2)NC)C(=O)N[C@@H](Cc2ccccc2)C(=O)N[C@@H]([C@@H](C)O)C(=O)N[C@@H](C)C(=O)N[C@@H](CO)C(=O)N[C@@H](Cc2ccc(O)cc2)C(=O)N[C@@H](CCCNC(=N)N)C(=O)N1)C(C)C)[C@@H](C)CC)C(=O)N[C@@H](CO)C(=O)N[C@@H](CCCNC(=N)N)C(N)=O [SP-24] (H-[NMeY]ADA[R8]FTASYR[S5]VLAQLSARKALQDI[Nle]SR-NH2; staple 5-12)	1 to 10
CCCC[C@H](NC(=O)[C@@H](NC(=O)[C@H](CC(=O)O)NC(=O)[C@H](C)NC(=O)[C@H](CC(C)C)NC(=O)[C@H](C)NC(=O)[C@H](CCCCN)NC(=O)[C@H](CCCNC(=N)N)NC(=O)[C@H](C)NC(=O)C(C)(C)NC(=O)[C@H](CC(C)C)NC(=O)[C@H](CCC(N)=O)NC(=O)[C@H](C)NC(=O)[C@H](CC(C)C)NC(=O)[C@@H](NC(=O)[C@H](CCCCN)NC(=O)[C@H](CCCNC(=N)N)NC(=O)[C@H](Cc1ccc(O)cc1)NC(=O)[C@H](CO)NC(=O)[C@H](C)NC(=O)[C@@H](NC(=O)[C@H](Cc1ccccc1)NC(=O)[C@@H](NC(=O)[C@H](C)NC(=O)[C@H](CC(=O)O)NC(=O)[C@H](C)NC(=O)[C@H](Cc1ccc(O)cc1)NC)[C@@H](C)CC)[C@@H](C)O)C(C)C)[C@@H](C)CC)C(=O)N[C@@H](CO)C(=O)N[C@@H](CCCNC(=N)N)C(N)=O [SP-54] (H-[NMeY]ADAIFTASYRKVLAQL[Aib]ARKALADI[Nle]SR-NH2)	1 to 10
